Columns and labels:
[1] = system: hair cells of zebrafish reduced by neomycin; assay: Hair cells of zebrafish larvae reduced by neomycin (ototoxicity), YO-PRO staining and fluorescence microscope count; assay type: in vivo; conditions: neomycin 1 μM 1 h, then single substance 1 μg/ml 12 h (FIGS. 7, 8)
Method: Particularly, 6 days after fertilization, zebrafish […] placed in 24-well plates and neomycin was added thereto at the concentration of 1 μM. One hour later, neomycin was removed and the isopropanol fraction of avocado oil prepared in Example 1 was added at the concentration of 1 μg/ml. At this time, avocado oil was used as the control and 0.03% (w/v) sea salt solution was used as the untreated control. Twelve hours later, 0.1% YO-PRO (Life Technologies, USA) was added to stain hair cells of the […] for 30 minutes. […] Particularly, 6 days after fertilization, zebrafish […] placed in 24-well plates and neomycin was added thereto at the concentration of 1 μM. One hour later, neomycin was removed and A-E were added at the concentration of 10 μg/ml. At this time, 0.03% (w/v) sea salt solution was used as the control. Twelve hours later, 0.1% YO-PRO (Life Technologies, USA) was added to stain hair cells of the […] for 30 minutes. The stained hair cells were observed using a fluorescence microscope (Olympus 1x70, Olympus, Japan), and the number of the observed hair cells was counted and analyzed.

[2] = system: hair cells of zebrafish reduced by kanamycin; assay type: in vivo; conditions: kanamycin 1 μM vs neomycin 1 μM, 1 h; comparison of Experimental Examples 6 and 7
Method: Particularly, 6 days after fertilization, zebrafish larvaes were placed in 24-well plates and kanamycin was added thereto at the concentration of 1 μM. One hour later, kanamycin was removed and IPG and BG were added at the concentration of 10 μg/ml. At this time, 0.03% (w/v) sea salt solution was used as the control. Twelve hours later, 0.1% YO-PRO (Life Technologies, USA) was added to stain hair cells of the larvaes for 30 minutes. The stained hair cells were observed using a fluorescence microscope (Olympus 1x70, Olympus, Japan), and the number of the observed hair cells was counted and analyzed. As a result, the number of hair cells observed with a fluorescence microscope was shown in FIG. 11 and photomicrographs of the hair cells taken with a fluorescence microscope were shown in FIG. 12.

SMILES	number of hair cells [1]	toxicity to hair cells of zebrafish fry (reduction of the number of hair cells) [2]
CC/C=C\C/C=C\C/C=C\CCCCCCCC(=O)O [alpha-linolenic acid]	significantly increased	
NC[C@H]1O[C@H](O[C@H]2[C@H](O)[C@@H](O[C@H]3O[C@H](CO)[C@@H](O)[C@H](N)[C@H]3O)[C@H](N)C[C@@H]2N)[C@H](O)[C@@H](O)[C@@H]1O [kanamycin]		more toxic than neomycin
CCCCC/C=C\C/C=C\CCCCCCCC(=O)O [linoleic acid]	significantly increased	
CCCCCCCCCCCCCCCCCC(=O)O [stearic acid]	significantly increased	
